Experimental data reported in ChEMBL document CHEMBL5244245, “Medicinal chemistry insights into novel CDC25 inhibitors” (Eur J Med Chem, 2020).
Blank lines part the entries; values can stand above or below the molecule they belong to.

Tests used:
[1] = Antitumor activity against human RPMI cells; assay type: functional, cell-based
[2] = target: T1, M-phase inducer phosphatase 1 (Homo sapiens, UniProt P30304); experiment: Inhibition of human CDC25A
T1 sequence (P30304 whole entry): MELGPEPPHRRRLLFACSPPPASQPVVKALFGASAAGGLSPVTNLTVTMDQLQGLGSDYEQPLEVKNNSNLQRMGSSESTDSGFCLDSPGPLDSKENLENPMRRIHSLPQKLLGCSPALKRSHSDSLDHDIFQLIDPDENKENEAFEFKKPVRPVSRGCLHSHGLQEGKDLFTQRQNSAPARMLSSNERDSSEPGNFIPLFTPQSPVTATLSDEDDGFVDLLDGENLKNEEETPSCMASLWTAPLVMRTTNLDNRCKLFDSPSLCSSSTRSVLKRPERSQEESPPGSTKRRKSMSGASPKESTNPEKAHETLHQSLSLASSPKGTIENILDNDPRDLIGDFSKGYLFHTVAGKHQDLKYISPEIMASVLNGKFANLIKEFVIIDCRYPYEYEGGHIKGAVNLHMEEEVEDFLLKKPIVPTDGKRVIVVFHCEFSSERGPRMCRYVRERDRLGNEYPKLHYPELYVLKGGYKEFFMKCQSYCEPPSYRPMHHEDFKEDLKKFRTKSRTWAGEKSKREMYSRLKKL

[3] = target: T2, M-phase inducer phosphatase 2 (Homo sapiens, UniProt P30305); experiment: Inhibition of human CDC25B
T2 sequence (P30305 whole entry): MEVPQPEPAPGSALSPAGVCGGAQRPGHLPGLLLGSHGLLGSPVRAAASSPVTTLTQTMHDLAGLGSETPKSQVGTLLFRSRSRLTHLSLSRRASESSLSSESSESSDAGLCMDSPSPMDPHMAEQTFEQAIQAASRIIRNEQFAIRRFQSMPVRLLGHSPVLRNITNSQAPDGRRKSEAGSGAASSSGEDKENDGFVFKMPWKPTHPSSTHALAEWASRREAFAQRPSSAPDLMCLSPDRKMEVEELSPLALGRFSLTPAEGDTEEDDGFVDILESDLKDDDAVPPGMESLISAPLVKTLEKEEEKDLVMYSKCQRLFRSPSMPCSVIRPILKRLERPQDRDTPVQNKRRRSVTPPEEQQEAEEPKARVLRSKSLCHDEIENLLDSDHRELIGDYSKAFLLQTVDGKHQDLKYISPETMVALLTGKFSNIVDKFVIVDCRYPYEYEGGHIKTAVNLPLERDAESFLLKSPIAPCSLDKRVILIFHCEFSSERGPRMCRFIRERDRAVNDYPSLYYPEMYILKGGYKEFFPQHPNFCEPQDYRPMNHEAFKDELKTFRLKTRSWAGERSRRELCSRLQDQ

[4] = target: T3, M-phase inducer phosphatase 3 (Homo sapiens, UniProt P30307); experiment: Inhibition of human CDC25C
T3 sequence (P30307 whole entry): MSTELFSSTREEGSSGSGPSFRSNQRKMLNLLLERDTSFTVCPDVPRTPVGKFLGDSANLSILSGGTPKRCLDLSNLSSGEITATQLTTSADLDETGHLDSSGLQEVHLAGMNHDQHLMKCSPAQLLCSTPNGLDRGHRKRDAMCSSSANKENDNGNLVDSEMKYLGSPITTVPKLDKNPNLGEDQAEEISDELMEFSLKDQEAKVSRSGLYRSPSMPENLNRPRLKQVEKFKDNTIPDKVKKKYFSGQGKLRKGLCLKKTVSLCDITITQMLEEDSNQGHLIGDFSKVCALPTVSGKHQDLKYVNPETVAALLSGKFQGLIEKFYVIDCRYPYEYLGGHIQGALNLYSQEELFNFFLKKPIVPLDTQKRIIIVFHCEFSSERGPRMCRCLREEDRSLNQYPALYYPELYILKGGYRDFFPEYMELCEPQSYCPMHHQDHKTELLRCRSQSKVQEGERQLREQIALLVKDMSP

[5] = target: T3, M-phase inducer phosphatase 3; experiment: Inhibition of CDC25C (unknown origin)
[6] = target: T1, M-phase inducer phosphatase 1; experiment: Inhibition of CDC25A (unknown origin)
[7] = target: T2, M-phase inducer phosphatase 2; experiment: Inhibition of CDC25B (unknown origin)
[8] = tested on: HeLa; experiment: Cytotoxicity against human HeLa cells assessed as inhibition of cell growth incubated for 48 hrs by MTT assay; assay type: functional, cell-based
[9] = target: T1, M-phase inducer phosphatase 1; experiment: Inhibition of CDC25A (unknown origin) using fluorescein diphosphate as substrate
[10] = target: T1, M-phase inducer phosphatase 1; experiment: Inhibition of recombinant N-terminal GST-tagged CDC25A (unknown origin) expressed in Escherichia coli BL21 (DE3) cells incubated for 2 hrs
[11] = target: T3, M-phase inducer phosphatase 3; experiment: Inhibition of recombinant N-terminal GST-tagged CDC25C (unknown origin) expressed in Escherichia coli BL21 (DE3) cells incubated for 2 hrs
[12] = target: T2, M-phase inducer phosphatase 2; experiment: Inhibition of recombinant N-terminal GST-tagged CDC25B (unknown origin) expressed in Escherichia coli BL21 (DE3) cells incubated for 2 hrs
[13] = tested on: HCT-116; experiment: Antitumor activity against human HCT-116 cells; assay type: functional, cell-based
[14] = target: T2, M-phase inducer phosphatase 2; experiment: Inhibition of human recombinant CDC25B
[15] = target: T2, M-phase inducer phosphatase 2; experiment: Inhibition of recombinant CDC25B (unknown origin)
[16] = target: T1, M-phase inducer phosphatase 1; experiment: Inhibition of recombinant CDC25A (unknown origin)
[17] = target: T3, M-phase inducer phosphatase 3; experiment: Inhibition of recombinant CDC25C (unknown origin)
[18] = target: T2, M-phase inducer phosphatase 2; experiment: Inhibition of recombinant N-terminal GST-tagged CDC25B (372 to 551 residues) (unknown origin) expressed in Escherichia coli BL21 (DE3) cells incubated for 45 mins
[19] = target: T1, M-phase inducer phosphatase 1; experiment: Inhibition of N-terminal FLAG-tagged wild type CDC25A (331 to 524 residues) (unknown origin) expressed in Escherichia coli BL21 (DE3) cells incubated for 45 mins

IC50 [1]: 0.7 µM
SMILES: CCNC1=C(F)C(=O)c2c(F)c(F)c(F)c(F)c2C1=O

IC50 [1]: 0.8 µM
SMILES: O=C1C(F)=C(Nc2ccccc2)C(=O)c2c(F)c(F)c(F)c(F)c21

SMILES: O=C(O)c1ccc(NC2=C(Cl)C(=O)c3ccccc3C2=O)cc1
IC50 [2]: 3.19 µM
IC50 [3]: 11.1 µM
IC50 [4]: 5.41 µM

IC50 [5]: 3.5 µM
IC50 [6]: 0.65 µM
IC50 [7]: 0.78 µM
SMILES: O=C(O)C1CCCCC1c1c2ccc(=O)cc-2oc2cc(O)ccc12 (stereo not drawn)

IC50 [9]: 7.9 µM
SMILES: CCCc1cc(O)nc(SCC(=O)NCCSCc2ccco2)n1
IC50 [8]: 66.3 µM

IC50 [10]: 4.3 µM
IC50 [11]: 0.9 µM
IC50 [12]: 9.1 µM
SMILES: COc1ccc2c(CSC3=CC(=O)c4ccccc4C3=O)cc(=O)oc2c1

SMILES: CCSC1=C(C)C(=O)c2ccccc2C1=O
IC50 [6]: 5.5 µM
IC50 [7]: 4.7 µM

IC50 [13]: 0.89 µM
SMILES: CC(C)=CCOc1ccc(C(=O)/C=C/c2ccc(Cl)cc2)c(O)c1

IC50 [5]: 2.55 µM
IC50 [6]: 2.73 µM
SMILES: CC(C)n1c2c(=O)c(-c3ccc(F)cc3)cc(=O)c2c2c(=O)c3ccccc3c21

IC50 [5]: 2.51 µM
IC50 [6]: 2 µM
SMILES: Cc1cc(=O)c2c(c1=O)c1c(=O)c3ccccc3c1n2C(C)C

IC50 [3]: 39 µM
SMILES: CCOC(=O)c1ccc(N2C(=O)/C(=C\c3cccc(C)c3)SC2c2ccccc2)cc1 (stereo not drawn)

IC50 [14]: 4.5 µM
SMILES: CCOC(=O)C1=C(C)N=c2s/c(=C\c3cc(Br)c(O)c(Br)c3)c(=O)n2C1c1ccc2c(c1)OCO2 (stereo not drawn)

IC50 [15]: 0.053 µM
IC50 [16]: 0.023 µM
IC50 [17]: 0.023 µM
SMILES: CN(C)CCNC1=CC(=O)c2nc(-c3cc(F)ccc3F)oc2C1=O

IC50 [7]: 2.1 µM
SMILES: C[C@@H](C[C@@H](O)C(C)(C)C=O)[C@@H]1CC[C@]2(C)C3=CC[C@H]4C(C)(C)C(=O)CC[C@]4(C)[C@H]3CC[C@@]12C

IC50 [18]: 1000 µM
IC50 [19]: 2200 µM
SMILES: N#Cc1c(F)cc(O)cc1SCCS(=O)(=O)O

IC50 [7]: 3 µM
SMILES: CCOC(=O)C1=C(C)N=c2s/c(=C\c3ccc(-n4cc(CNC(=O)Nc5sccc5C(=O)O)nn4)cc3)c(=O)n2C1c1ccccc1 (stereo not drawn)

IC50 [5]: 1.72 µM
IC50 [6]: 1.68 µM
SMILES: CC(C)n1c2c(=O)c(-c3ccco3)cc(=O)c2c2c(=O)c3ccccc3c21

IC50 [5]: 9 µM
IC50 [6]: 13.2 µM
IC50 [7]: 46.1 µM
SMILES: CCCCOc1cc2c(c3c(=O)oc4ccccc4c13)C(=O)C=CC2=O

IC50 [5]: 2 µM
IC50 [6]: 2.01 µM
SMILES: CC(C)n1c2c(=O)c(-c3ccccc3)cc(=O)c2c2c(=O)c3ccccc3c21

IC50 [15]: 0.053 µM
IC50 [16]: 0.023 µM
IC50 [17]: 0.023 µM
SMILES: Cc1nc2c(s1)C(=O)C=C(NCCN(C)C)C2=O

IC50 [2]: 2.6 µM
IC50 [3]: 6.99 µM
IC50 [4]: 5.72 µM
SMILES: COC1=CC(=O)C=C([S@@+]([O-])c2ccc(C)cc2)C1=O

IC50 [7]: 6.44 µM
SMILES: CCCCCCCCCCCC/C=C/[C@]12C(=O)O[C@]3(C)O[C@]4(C)OC(=O)C(=C[C@H]1CCCCCCCCCCCC)C4C32 (single isomer, unassigned)
